This experiment deals with T1, Human ATX protein (Homo sapiens, UniProt Q13822).
T1 construct: made in house
As to the kind of experiment: ATX biochemical FRET assay with FS-3 substrate. The following applies: FS-3 2 μM, ATX 1.0 μg/mL, room temperature 2 hours, fluorescence 485/538 nm. The text has this:
ATX (Autotaxin) is a 125 KDa glycoprotein with lysophospholipase D (LPLD) activity that generates the bioactive lipid lysophosphatidic acid (LPA) from lysophosphatidylcholine (LPC). The ATX biochemical assay utilizes a FRET (fluorescence resonance energy transfer) technology platform. The fluorescence signal of FRET substrate FS-3 is quenched due to intra-molecular FRET of a fluorophore to a non-fluorescing quencher (Ferguson, C. G., et al., Org Lett. 2006 May 11; 8(10): 2023-2026, which is incorporated by reference in its entirety). ATX catalyzes the hydrolysis of the substrate which separates the dabsyl quencher from the fluorescein reporter, which becomes fluorescent. The reaction is monitored by a SpectraMax M5 (Molecular Devices, Sunnyvale, Calif.) with at excitation wavelength 485 nm and emission wavelength […].
Fatty acid free-BSA (Sigma A8806): 10 mg/ml, in H2O, stored at 4° C.
2×ATX assay buffer: 100 mM Tris, 280 mM NaCl, 10 mM KCl, 2 mM CaCl2, 2 mM MgCl2, pH 7.4.
Human ATX protein: expressed and purified in house. Stored at −80° C.
Substrate FS-3 (Echelon, L-2000): 100 μg in 77.74 μL H2O (1 mM stock), stored at −20° C.
384-well flat bottom plates—Corning #3575.
Compound dilution—All compounds were provided at 10 mM in 100% DMSO. In the first well, 2 μL of 10 mM compound was added to 78 μL of DMSO (1:40 dilution). In subsequent wells 3-fold dilution (total 10 dilutions) were performed.
1×ATX assay buffer was made up with a final concentration of 1 mg/mL fatty acid free-BSA using 2×ATX assay buffer, 10 mg/ml fatty acid free-BSA and ddH2O.
ATX protein was diluted with 1×ATX assay buffer to a concentration of 1.32 μg/mL (1.32×). 38 μL was added per well to the assay plate. The final concentration of ATX in the reaction as 1.0 μg/mL.
2 μL per well of compounds was transferred to provide the desired concentration. The plate was centrifuged, then incubated at room temperature for 30 minutes on the shaker.
FS-3 was diluted with 1×ATX assay buffer to a concentration of FS-3 of 10 μM (5×). Then, 10 μL was added per well to the assay plate. The final concentration of FS-3 in the reaction was 2 μM. The plate was centrifuged. The plate was kept shaking at room temperature for 2 hours. Because FS-3 substrate is light sensitive, plates were kept covered and protected from light.
Fluorescence was measured using SpectraMax M5 (excitation at 485 nm/emission at 538 nm, top read).

The values below come from patent US9944666B2, “Compounds that are S1P modulating agents and/or ATX modulating agents” (BIOGEN MA INC., priority 2012, dated 2018).

Some results are limits rather than exact numbers.

`CC[C@H]1CC[C@@H](Oc2ccc3cc(C(C)N4C5CCCC4CC(C(=O)O)C5)ccc3c2C(F)(F)F)CC1` (relative stereo) [Example 175, 9-(1-(6-((cis-4-ethylcyclohexyl)oxy)-5-(trifluoromethyl)naphthalen-2-yl)ethyl)-9-azabicyclo[3.3.1]nonane-3-carboxylic acid]: the IC50 was not above 100 nM. As for `CC[C@H]1CC[C@@H](Oc2ccc3cc(C(C)N4C5CCC4CC(C(=O)O)C5)ccc3c2C(F)(F)F)CC1` (relative stereo) [Example 176, 8-(1-(6-((cis-4-ethylcyclohexyl)oxy)-5-(trifluoromethyl)naphthalen-2-yl)ethyl)-8-azabicyclo[3.2.1]octane-3-carboxylic acid], the IC50 was not above 100 nM.

The compound `CCC(c1ccc2c(C(F)(F)F)c(O[C@H]3CC[C@@H](C(F)(F)F)CC3)ccc2c1)N1C2CCCC1CC(C(=O)O)C2` (relative stereo) [Example 177, 9-(1-(6-((cis-4-trifluoromethylcyclohexyl)oxy)-5-(trifluoromethyl)naphthalen-2-yl)propyl)-9-azabicyclo[3.3.1]nonane-3-carboxylic acid] yielded an IC50 not above 100 nM.

In turn, `CCC(c1ccc2c(C(F)(F)F)c(O[C@H]3CC[C@@H](C(F)(F)F)CC3)ccc2c1)N1C2CCC1CC(C(=O)O)C2` (relative stereo) [Example 178, 8-(1-(6-((cis-4-trifluoromethylcyclohexyl)oxy)-5-(trifluoromethyl)naphthalen-2-yl)propyl)-8-azabicyclo[3.2.1]octane-3-carboxylic acid] displayed a half-maximal inhibitory concentration (IC50) not above 100 nM. `CCC(c1ccc2c(C(F)(F)F)c(O[C@H]3CC[C@@H](CC)CC3)ccc2c1)N1C2CCCC1CC(C(=O)O)C2` (relative stereo) [Example 179, 9-(1-(6-((cis-4-ethylcyclohexyl)oxy)-5-(trifluoromethyl)naphthalen-2-yl)propyl)-9-azabicyclo[3.3.1]nonane-3-carboxylic acid] had an IC50 not above 100 nM.

The compound `CCC(c1ccc2c(C(F)(F)F)c(O[C@H]3CC[C@@H](CC)CC3)ccc2c1)N1C2CCC1CC(C(=O)O)C2` (relative stereo) [Example 180, 8-(1-(6-((cis-4-ethylcyclohexyl)oxy)-5-(trifluoromethyl)naphthalen-2-yl)propyl)-8-azabicyclo[3.2.1]octane-3-carboxylic acid] had an IC50 not above 100 nM. Compound `CC[C@H]1CC[C@@H](Oc2ccc3cc(C(C)N4C5CCCC4CC(C(=O)O)C5)ccc3c2Cl)CC1` (relative stereo) [Example 182, 9-(1-(6-((cis-4-ethylcyclohexyl)oxy)-5-chloronaphthalen-2-yl)ethyl)-9-azabicyclo[3.3.1]nonane-3-carboxylic acid] came in with an IC50 not above 100 nM. The compound `C[C@H]1CC[C@@H](Oc2ccc3cc(CN4C5CCCC4CC(C(=O)O)C5)ccc3c2Cl)CC1` (relative stereo) [Example 183, 9-((5-Chloro-6-((cis-4-methylcyclohexyl)oxy)naphthalen-2-yl)methyl)-9-azabicyclo[3.3.1]nonane-3-carboxylic acid] yielded an IC50 not above 250 nM.

With `CC[C@H]1CC[C@@H](Oc2ccc3cc(C(C)N4C5CCC4CC(C(=O)O)C5)ccc3c2Cl)CC1` (relative stereo) [Example 184, 8-(1-(5-Chloro-6-((cis-4-ethylcyclohexyl)oxy)naphthalen-2-yl)ethyl)-8-azabicyclo[3.2.1]octane-3-carboxylic acid], the half-maximal inhibitory concentration (IC50) is not above 100 nM. The compound `CC[C@H]1CC[C@@H](Oc2ccc3cc(CN4C5CCC4CC(C(=O)O)C5)ccc3c2Cl)CC1` (relative stereo) [Example 185, 8-((5-Chloro-6-((cis-4-ethylcyclohexyl)oxy)naphthalen-2-yl)methyl)-8-azabicyclo[3.2.1]octane-3-carboxylic acid] showed a 50% inhibitory concentration (IC50) not above 100 nM.

In the case of `C[C@H](c1ccc2c(C(F)(F)F)c(O[C@H]3CC[C@@H](C(F)(F)F)CC3)ccc2c1)N1C2CCCC1CC(C(=O)O)C2` (single isomer, unassigned) [Example 89], the half-inhibitory concentration (IC50) is not above 100 nM. As to `C[C@@H](c1ccc2c(C(F)(F)F)c(O[C@H]3CC[C@@H](C(F)(F)F)CC3)ccc2c1)N1C2CCCC1CC(C(=O)O)C2` (single isomer, unassigned) [Example 90], the IC50 is not above 100 nM.

The compound `CC[C@@H](c1ccc2c(C(F)(F)F)c(O[C@H]3CC[C@@H](C)CC3)ccc2c1)N1C2CCC1CC(C(=O)O)C2` (single isomer, unassigned) [Example 233, 8-((s)-1-(6-((cis-4-methylcyclohexyl)oxy)-5-(trifluoromethyl)naphthalen-2-yl)propyl)-8-azabicyclo[3.2.1]octane-3-carboxylic acid] came in with a 50% inhibitory concentration (IC50) not above 100 nM.

On to `CC[C@H]1CC[C@@H](Oc2ccc3cc([C@@H](C)N4C5CCCC4CC(C(=O)O)C5)ccc3c2Cl)CC1` (single isomer, unassigned) [Example 238], for which the half-maximal inhibitory concentration (IC50) was not above 100 nM. Then `C[C@H](c1ccc2c(Cl)c(O[C@H]3CC[C@@H](C(F)(F)F)CC3)ccc2c1)N1C2CCCC1CC(C(=O)O)C2` (single isomer, unassigned) [Example 240], with not above 100 nM. In turn, `C[C@H](c1ccc2c(Cl)c(O[C@H]3CC[C@@H](C(F)(F)F)CC3)ccc2c1)N1C2CCC1CC(C(=O)O)C2` (single isomer, unassigned) [Example 242] yielded a half-inhibitory concentration (IC50) not above 100 nM. `CC[C@@H](c1ccc2c(Cl)c(O[C@H]3CC[C@@H](CC)CC3)ccc2c1)N1C2CCCC1CC(C(=O)O)C2` (single isomer, unassigned) [Example 249]: the half-inhibitory concentration (IC50) is not above 100 nM. Regarding `CC[C@H](c1ccc2c(C(F)(F)F)c(O[C@H]3CC[C@@H](C(F)(F)F)CC3)ccc2c1)N1C2CCC1CC(C(=O)O)C2` (single isomer, unassigned) [Example 287], the IC50 was not above 100 nM. The compound `CC[C@@H](c1ccc2c(C(F)(F)F)c(O[C@H]3CC[C@@H](C(F)(F)F)CC3)ccc2c1)N1C2CCC1CC(C(=O)O)C2` (single isomer, unassigned) [Example 288] showed an IC50 not above 250 nM. `CC[C@H]1CC[C@@H](Oc2ccc3cc([C@@H](C)N4C5CCC4CC(C(=O)O)C5)ccc3c2C(F)(F)F)CC1` (single isomer, unassigned) [Example 289] displayed an IC50 not above 100 nM. `CC[C@H]1CC[C@@H](Oc2ccc3cc([C@H](C)N4C5CCC4CC(C(=O)O)C5)ccc3c2C(F)(F)F)CC1` (single isomer, unassigned) [Example 290] had a 50% inhibitory concentration (IC50) not above 100 nM. Regarding `CC[C@H]1CC[C@@H](Oc2ccc3cc([C@@H](C)N4C5CCCC4CC(C(=O)O)C5)ccc3c2C(F)(F)F)CC1` (single isomer, unassigned) [Example 291], the IC50 is not above 100 nM. `CC[C@H]1CC[C@@H](Oc2ccc3cc([C@H](C)N4C5CCCC4CC(C(=O)O)C5)ccc3c2C(F)(F)F)CC1` (single isomer, unassigned) [Example 292] yielded an IC50 not above 100 nM. On to `CC[C@H](c1ccc2c(C(F)(F)F)c(O[C@H]3CC[C@@H](CC)CC3)ccc2c1)N1C2CCC1CC(C(=O)O)C2` (single isomer, unassigned) [Example 293], for which the 50% inhibitory concentration (IC50) was not above 500 nM. As for `CC[C@@H](c1ccc2c(C(F)(F)F)c(O[C@H]3CC[C@@H](CC)CC3)ccc2c1)N1C2CCC1CC(C(=O)O)C2` (single isomer, unassigned) [Example 294], the IC50 is not above 100 nM. In turn, `CC[C@H](c1ccc2c(C(F)(F)F)c(O[C@H]3CC[C@@H](C(F)(F)F)CC3)ccc2c1)N1C2CCCC1CC(C(=O)O)C2` (single isomer, unassigned) [Example 295] gave a concentration for half-maximal inhibition (IC50) not above 250 nM. `CC[C@@H](c1ccc2c(C(F)(F)F)c(O[C@H]3CC[C@@H](C(F)(F)F)CC3)ccc2c1)N1C2CCCC1CC(C(=O)O)C2` (single isomer, unassigned) [Example 296]: the IC50 is not above 100 nM. The result for `CC(c1ccc2c(C(F)(F)F)c(O[C@H]3CC[C@@H](C)CC3)ccc2c1)N1C2CCCC1CC(C(=O)O)C2` (single isomer, unassigned; enantiomer 1) [Example 94, 9-(1-(6-((cis-4-Methylcyclohexyl)oxy)-5-(trifluoromethyl)naphthalen-2-yl)ethyl)-9-azabicyclo[3.3.1]nonane-3-carboxylic acid, enantiomer 1] reads not above 100 nM.

As usually defined, the IC50 is the point on the concentration scale where inhibition reaches its midpoint.
